Counter-ions that a name gives are not always drawn.

The test system of test [1] is S. pneumoniae strain TIGR4. In words: Streptococcus pneumoniae infection in mice, survival by defined mortality-endpoint. The test is classed as in vivo. The following applies: C57BL/6 mice, 0.2 mg/kg intranasal twice daily for eleven days, infected intranasally with 1×10^7 CFU S. pneumoniae TIGR4; n=60; Mantel-Cox **p<0.005. As for the experimental part:
(§1) Germ-free C57BL/6 male and female mice aged 10-12 weeks were intranasally administered with 0.2% Tween-80/saline vehicle or 0.2 mg/kg micronized 6-(1H-indol-4-yl)-4-(5-{[4-(1-methylethyl)-1-piperazinyl]methyl}-1,3-oxazol-2-yl)-1H-indazole hydrochloride in the same vehicle. Compound dosing was carried out twice daily for eleven days under anaesthesia using 3% isoflurane for induction and 2% isoflurane for maintenance. At the start of day two, and one hour after administering 6-(1H-indol-4-yl)-4-(5-{[4-(1-methylethyl)-1-piperazinyl]methyl}-1,3-oxazol-2-yl)-1H-indazole hydrochloride or vehicle, mice were anaesthetized with isoflurane as above and infected intranasally with 1×10^7 CFU of S. pneumoniae strain TIGR4. S. Pneumoniae was obtained and prepared as described previously (see, for example, Infect. Immun. December 2011; 79(12): 4965-4976) and given in an inoculum of 50 μl PBS per mouse. Mice were monitored three times daily and assessed using a defined mortality-endpoint, where mice displaying three or more of the limiting clinical signs stated in Home Office Project Licence PPL 70/7661 were culled.

The test system of test [2] is lung gene expression. Description: Affymetrix GeneChip lung gene expression in S. Pneumoniae-infected mice. The test is classed as in vivo. The following applies: lungs of S. Pneumoniae-infected mice at various timepoints after infection; genes with minimum 1.5 fold-change, p<0.05; n=6. The protocol: as §1
Each band corresponds to a single probe and intensity signifies fold change, as indicated in the legend.

For the compound `CC(C)N1CCN(Cc2cnc(-c3cc(-c4cccc5[nH]ccc45)cc4[nH]ncc34)o2)CC1` [6-(1H-indol-4-yl)-4-(5-{[4-(1-methylethyl)-1-piperazinyl]methyl}-1,3-oxazol-2-yl)-1H-indazole hydrochloride], the “defined mortality-endpoint (percentage survival) compared to vehicle controls” value in test [1] is recorded as “reduced a defined mortality-endpoint”. In test [2], the “lung gene expression compared to vehicle controls” value is on record as “altered lung gene expression”.

The record behind these values is US20160263109A1, “P13K INHIBITOR FOR TREATMENT OF RESPIRATORY DISEASE” (GLAXOSMITHKLINE INTELLECTUAL PROPERTY DEVELOPMENT LIMITED, priority 2013, published 2016).
